Experimental data as given in PubChem BioAssay AID248 (DTP/NCI, 2004).
Several values for one entry are separate records, joined by “and”; a condition that tells them apart may be missing. Equal values may be shown once. Toxic doses and inconclusive results are not listed. No stated cut-off is given here; in the data, active means T/C of 150% or more; inactive means T/C below 125%.

Test system: L1210 leukemia ip in BDF1 mice, survival T/C
Test: NCI In Vivo Anticancer Drug Screen. Data for tumor model L1210 Leukemia (intraperitoneal) in B6D2F1 (BDF1) mice
Conditions: endpoint: mean survival time, higher = longer survival
In short: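 Antitumor effect is assessed in tumor-bearing animals. Survival in the compound arm is compared with a vehicle-dosed control arm and expressed as their quotient.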

[1] = dose: 100.0 mg/kg/injection, schedule: Q01DX001 (ip), vehicle: carboxymethylcellulose (CMC)
[2] = dose: 200.0 mg/kg/injection, schedule: Q01DX001 (ip), vehicle: carboxymethylcellulose (CMC)
[3] = dose: 400.0 mg/kg/injection, schedule: Q01DX001 (ip), vehicle: carboxymethylcellulose (CMC)
[4] = dose: 100.0 mg/kg/injection, schedule: Q01DX001 (ip), vehicle: saline
[5] = dose: 100.0 mg/kg/injection, schedule: Q04DX003 (ip), vehicle: Klucel (hydroxypropylcellulose) (HPC)
[6] = dose: 200.0 mg/kg/injection, schedule: Q01DX001 (ip), vehicle: saline
[7] = dose: 200.0 mg/kg/injection, schedule: Q04DX003 (ip), vehicle: Klucel (hydroxypropylcellulose) (HPC)
[8] = dose: 400.0 mg/kg/injection, schedule: Q01DX001 (ip), vehicle: saline
[9] = dose: 400.0 mg/kg/injection, schedule: Q04DX003 (ip), vehicle: Klucel (hydroxypropylcellulose) (HPC)
[10] = dose: 100.0 mg/kg/injection, schedule: Q01DX009 (ip), vehicle: saline
[11] = dose: 100.0 mg/kg/injection, schedule: Q04DX003 (ip), vehicle: saline
[12] = dose: 200.0 mg/kg/injection, schedule: Q04DX003 (ip), vehicle: saline
[13] = dose: 400.0 mg/kg/injection, schedule: Q04DX003 (ip), vehicle: saline
[14] = dose: 25.0 mg/kg/injection, schedule: Q01DX009 (ip), vehicle: saline with Tween-80
[15] = dose: 50.0 mg/kg/injection, schedule: Q01DX009 (ip), vehicle: saline with Tween-80
[16] = dose: 100.0 mg/kg/injection, schedule: Q01DX009 (ip), vehicle: saline with Tween-80
[17] = dose: 200.0 mg/kg/injection, schedule: Q01DX009 (ip), vehicle: saline with Tween-80
[18] = dose: 100.0 mg/kg/injection, schedule: Q01DX009 (ip), vehicle: Klucel (hydroxypropylcellulose) (HPC)

Measured: T/C

CCN(CC)c1cc(C)c2cc(Cc3ccccc3)ccc2n1
inactive: [1] 98 % of control | [2] 96 % of control | [3] 101 % of control

CN1CCN(CCSC(=O)N2c3ccccc3Sc3ccc(Cl)cc32)CC1
inactive: dose: 75.0 mg/kg/injection, schedule: Q01DX001 (ip), vehicle: saline 94 % of control

S=C(SNC1CCCCC1)SNC1CCCCC1
inactive: [4] 103 % of control | [5] 114 % of control | [6] 94 % of control | [7] 105 % of control | [8] 105 % of control | [9] 107 % of control

COC(=O)c1ccc(C(=O)OC)[n+]([O-])c1
inactive: [10] 102 % of control | [11] 103 % of control | dose: 200.0 mg/kg/injection, schedule: Q01DX009 (ip), vehicle: saline 106 % of control | [12] 108 % of control | dose: 266.0 mg/kg/injection, schedule: Q04DX003 (ip), vehicle: saline 93 % of control | dose: 400.0 mg/kg/injection, schedule: Q01DX009 (ip), vehicle: saline 106 % of control | [13] 101 % of control | dose: 600.0 mg/kg/injection, schedule: Q04DX003 (ip), vehicle: saline 90 % of control

COc1ccc(/C=N/NC(=O)CCCCCCCCC(=O)N/N=C/c2ccc(OC)c(OC)c2)cc1OC
inactive: [14] 98 % of control and 105 % of control | [15] 97 % of control and 101 % of control | dose: 100.0 mg/kg/injection, schedule: Q01DX001 (ip), vehicle: saline with Tween-80 95 % of control | dose: 100.0 mg/kg/injection, schedule: Q04DX002 (ip), vehicle: saline 90 % of control | dose: 100.0 mg/kg/injection, schedule: Q04DX003 (ip), vehicle: saline with Tween-80 94 % of control | dose: 200.0 mg/kg/injection, schedule: Q01DX001 (ip), vehicle: saline with Tween-80 114 % of control | dose: 200.0 mg/kg/injection, schedule: Q04DX002 (ip), vehicle: saline 97 % of control and 90 % of control | dose: 200.0 mg/kg/injection, schedule: Q04DX003 (ip), vehicle: saline with Tween-80 109 % of control | dose: 400.0 mg/kg/injection, schedule: Q04DX002 (ip), vehicle: saline 101 % of control and 103 % of control | dose: 400.0 mg/kg/injection, schedule: Q04DX003 (ip), vehicle: saline with Tween-80 96 % of control

NC(=O)CN(CC(N)=O)CC(N)=O
inactive: [4] 102 % of control | [6] 98 % of control | [8] 102 % of control

NNC(=O)c1ccccc1O
inactive: dose: 50.0 mg/kg/injection, schedule: Q01DX001 (ip), vehicle: other 105 % of control | [15] 90 % of control | dose: 100.0 mg/kg/injection, schedule: Q01DX001 (ip), vehicle: other 100 % of control | [16] 97 % of control | dose: 200.0 mg/kg/injection, schedule: Q01DX001 (ip), vehicle: other 97 % of control | [17] 102 % of control

COC(=N)c1ccc(O)c(C)c1
inactive: [11] 99 % of control | [12] 94 % of control | [13] 88 % of control

Nc1nc(N)c2c(n1)CNC2
inactive: [1] 112 % of control | [2] 112 % of control | [3] 104 % of control

N#[N+]c1ccccc1-c1nc(N)nc(N)n1
inactive: dose: 25.0 mg/kg/injection, schedule: Q01DX009 (ip), vehicle: saline 110 % of control | dose: 25.0 mg/kg/injection, schedule: Q04DX003 (ip), vehicle: saline 113 % of control | dose: 50.0 mg/kg/injection, schedule: Q01DX009 (ip), vehicle: saline 100 % of control | dose: 50.0 mg/kg/injection, schedule: Q04DX003 (ip), vehicle: saline 103 % of control | [4] 99 % of control | [10] 92 % of control | [11] 96 % of control

NNC(=O)COc1ccccc1
inactive: [4] 106 % of control

[N-]=[N+]=C1N=CN=C1c1ncnn1Cc1ccccc1
inactive: dose: 5.0 mg/kg/injection, schedule: Q01DX001 (ip), vehicle: other 105 % of control | dose: 10.0 mg/kg/injection, schedule: Q01DX001 (ip), vehicle: other 97 % of control | dose: 20.0 mg/kg/injection, schedule: Q01DX001 (ip), vehicle: other 94 % of control | dose: 40.0 mg/kg/injection, schedule: Q01DX001 (ip), vehicle: other 94 % of control | dose: 80.0 mg/kg/injection, schedule: Q01DX001 (ip), vehicle: other 101 % of control

O=[N+]([O-])c1cc(Cl)ccc1N1CCCC1
inactive: [16] 89 % of control | [17] 99 % of control

CC(/C=C\C1CCCCC1)=C\C=C\C(C)=C\C=N\Nc1ccc([N+](=O)[O-])cc1[N+](=O)[O-]
inactive: dose: 1.56 mg/kg/injection, schedule: Q01DX001 (ip), vehicle: saline with Tween-80 95 % of control | dose: 3.13 mg/kg/injection, schedule: Q01DX001 (ip), vehicle: saline with Tween-80 95 % of control | dose: 6.25 mg/kg/injection, schedule: Q01DX001 (ip), vehicle: saline with Tween-80 95 % of control | dose: 50.0 mg/kg/injection, schedule: Q01DX001 (ip), vehicle: saline with Tween-80 89 % of control

CC(C)=CC1C(C(=O)OC2CCN(C)CC2)C1(C)C (stereo not given)
inactive: dose: 25.0 mg/kg/injection, schedule: Q01DX001 (ip), vehicle: saline 98 % of control | dose: 50.0 mg/kg/injection, schedule: Q01DX001 (ip), vehicle: saline 98 % of control | [4] 101 % of control and 107 % of control

O=C(CNC(=O)c1ccccc1)N/N=C/c1cccc2ccccc12
inactive: [16] 89 % of control | [17] 94 % of control | dose: 400.0 mg/kg/injection, schedule: Q01DX009 (ip), vehicle: saline with Tween-80 94 % of control

CCCCC(C(=O)O)c1ccccc1 (stereo not given)
inactive: dose: 100.0 mg/kg/injection, schedule: Q04DX003 (ip), vehicle: saline sonified 100 % of control | dose: 200.0 mg/kg/injection, schedule: Q04DX003 (ip), vehicle: saline sonified 97 % of control | dose: 400.0 mg/kg/injection, schedule: Q04DX003 (ip), vehicle: saline sonified 100 % of control

N/C(Cc1ccc(N)cc1)=N\O
inactive: [14] 97 % of control | [15] 101 % of control | [16] 95 % of control

CC(C#N)CC12CCCCC1CC/C(=C\c1ccccc1)C2 (stereo not given)
inactive: [5] 92 % of control | [7] 94 % of control | [9] 94 % of control

CC1COP(Oc2ccccc2)O1 (stereo not given)
inactive: [4] 113 % of control | [6] 115 % of control | [8] 96 % of control

CC(=O)Nc1nccs1
inactive: dose: 50.0 mg/kg/injection, schedule: Q01DX009 (ip), vehicle: Klucel (hydroxypropylcellulose) (HPC) 94 % of control | [18] 97 % of control | [5] 97 % of control | [7] 97 % of control

O=C(NCCCl)Nc1ccc2c(c1)CCC2
inactive: [5] 94 % of control and 107 % of control | [7] 103 % of control and 90 % of control | [9] 92 % of control

O=C(OCc1ccccc1)c1cc(I)c(OCc2ccccc2)c(I)c1
inactive: [4] 98 % of control | [6] 98 % of control | [8] 98 % of control

Cc1coc(NS(=O)(=O)c2ccc(N=Nc3c(N)nc(N)[nH]c3=O)cc2)c1C
inactive: [4] 109 % of control | [6] 102 % of control | [8] 105 % of control

CCOC(=O)/C=C(\C)OC
inactive: [18] 102 % of control | [5] 96 % of control | dose: 200.0 mg/kg/injection, schedule: Q01DX009 (ip), vehicle: Klucel (hydroxypropylcellulose) (HPC) 97 % of control | [7] 105 % of control | dose: 400.0 mg/kg/injection, schedule: Q01DX009 (ip), vehicle: Klucel (hydroxypropylcellulose) (HPC) 94 % of control | [9] 100 % of control

CN(C)C1=CC(=O)C(N(C)C)=CC1=O
inactive: dose: 100.0 mg/kg/injection, schedule: Q01DX001 (ip), vehicle: Klucel (hydroxypropylcellulose) (HPC) 110 % of control | dose: 200.0 mg/kg/injection, schedule: Q01DX001 (ip), vehicle: Klucel (hydroxypropylcellulose) (HPC) 112 % of control | dose: 400.0 mg/kg/injection, schedule: Q01DX001 (ip), vehicle: Klucel (hydroxypropylcellulose) (HPC) 105 % of control

Cc1cc(C)c2c(c1)NP(=S)(c1ccccc1)N2 (stereo not given)
inactive: dose: 75.0 mg/kg/injection, schedule: Q04DX002 (ip), vehicle: gum acacia 93 % of control | dose: 150.0 mg/kg/injection, schedule: Q04DX002 (ip), vehicle: gum acacia 93 % of control | dose: 300.0 mg/kg/injection, schedule: Q04DX002 (ip), vehicle: gum acacia 93 % of control
